Results on 9 compounds are retold here after patent publication US9376396B2, “Acylaminocycloalkyl compounds suitable for treating disorders that respond to modulation of dopamine D3 receptor” (AbbVie Deutschland GmbH & Co. KG, priority 2012, dated 2016).

What is called Ki is the equilibrium dissociation constant of an inhibitor or competing ligand from its target. A higher Ki goes with a looser hold on the target.

Series [1] deals with T1, human dopamine D2L receptors (long isoform) (Homo sapiens, UniProt P14416).
T1 construct: expressed in transfected cells; host or cells: HEK-293
As to the kind of experiment: Receptor binding study, dopamine D2L receptor ([125I]iodospiperone displacement), selectivity vs D3. The settings on record: selectivity ratio, HEK-293 membranes. How it is done: (§1) The substance to be tested was either dissolved in methanol/Chremophor® (BASF SE) or in dimethyl sulfoxide and then diluted with water to the desired concentration.
(§2) Each assay mixture was run in triplicate. • The incubation buffer contained 50 mM tris, 120 mM NaCl, 5 mM KCl, 2 mM CaCl2, 2 mM MgCl2 and 0.1% bovine serum albumin, 10 μM quinolone and 0.1% ascorbic acid (prepared fresh daily). […] Each assay mixture was run in triplicate. • The incubation buffer contained 50 mM tris, 120 mM NaCl, 5 mM KCl, 2 mM CaCl2, 2 mM MgCl2 and 0.1% bovine serum albumin. The buffer was adjusted to pH 7.4 with HCl. c) Measurement and Analysis: • After having been incubated at 25° C. for 60 minutes, the assay mixtures were filtered through a Whatman GF/B glass fiber filter under vacuum using a cell collecting device. The filters were transferred to scintillation viols using a filter transfer system. After 4 ml of Ultima Gold® (Packard) have been added, the samples were shaken for one hour and the radioactivity was then counted in a Beta-Counter (Packard, Tricarb 2000 or 2200CA).

Series [2] concerns the target T2, human dopamine D3 receptors (Homo sapiens, UniProt P35462).
T2 construct: expressed in transfected cells; host or cells: HEK-293
As to the kind of experiment: Receptor binding study, dopamine D3 receptor ([125I]-iodosulpride displacement). Particulars: membranes of HEK-293 cells, 0.1 nM [125I]-iodosulpride, 25° C., 60 minutes. How it is done: as §1, §2

Series [3] in a line: Determination of the microsomal half-life / microsomal clearance, human. The series is classed as in vitro ADME. Particulars: human liver microsomes, 0.5 μM test substance, 0.25 mg microsomal protein/ml, NADPH, 37° C. On the procedure:
(§3) The metabolic stability of the compounds of the invention was determined in the following assay.
(§4) The test substances were incubated in a concentration of 0.5 μM as follows:
(§5) 0.5 μM test substance are preincubated together with liver microsomes from different species (from rat, human or other species) (0.25 mg of microsomal protein/ml) in 0.05 M potassium phosphate buffer of pH 7.4 in microtiter plates at 37° C. for 5 min. The reaction is started by adding NADPH (1 mg/mL). After 0, 5, 10, 15, 20 and 30 min, 50 μl aliquots are removed, and the reaction is immediately stopped and cooled with the same volume of acetonitrile. The samples are frozen until analyzed. The remaining concentration of undegraded test substance is determined by MSMS. The half-life (T½) is determined from the gradient of the signal of test substance/unit time plot, it being possible to calculate the half-life of the test substance, assuming first order kinetics, from the decrease in the concentration of the compound with time. The microsomal clearance (mCl) is calculated from mCl=ln 2/T½/(content of microsomal protein in mg/ml)×1000 [ml/min/mg] (modified from references: Di, The Society for Biomoleculur Screening, 2003, 453-462; Obach, DMD, 1999 vol 27. N 11, 1350-1359).
Background: Liver microsomes are vesicles of endoplasmic reticulum, rich in cytochrome P450 enzymes.

Series [4] can be described thus: Determination of the microsomal half-life / microsomal clearance, rat. The class given is in vitro ADME. Particulars: rat liver microsomes, 0.5 μM test substance, 0.25 mg microsomal protein/ml, NADPH, 37° C. How it is done:
as §3, §4, §5

T2 sequence (P35462 whole entry): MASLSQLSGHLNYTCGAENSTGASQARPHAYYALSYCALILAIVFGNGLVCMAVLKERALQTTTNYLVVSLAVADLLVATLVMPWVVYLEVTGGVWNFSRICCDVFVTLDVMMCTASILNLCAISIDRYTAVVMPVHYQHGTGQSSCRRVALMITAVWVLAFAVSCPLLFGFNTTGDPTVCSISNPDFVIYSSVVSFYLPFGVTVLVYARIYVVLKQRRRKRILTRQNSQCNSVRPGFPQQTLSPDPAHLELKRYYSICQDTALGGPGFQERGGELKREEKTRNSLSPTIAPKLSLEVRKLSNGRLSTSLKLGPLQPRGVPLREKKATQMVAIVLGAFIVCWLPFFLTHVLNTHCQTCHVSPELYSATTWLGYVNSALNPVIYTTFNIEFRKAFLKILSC
T1 sequence (P14416 whole entry, canonical isoform): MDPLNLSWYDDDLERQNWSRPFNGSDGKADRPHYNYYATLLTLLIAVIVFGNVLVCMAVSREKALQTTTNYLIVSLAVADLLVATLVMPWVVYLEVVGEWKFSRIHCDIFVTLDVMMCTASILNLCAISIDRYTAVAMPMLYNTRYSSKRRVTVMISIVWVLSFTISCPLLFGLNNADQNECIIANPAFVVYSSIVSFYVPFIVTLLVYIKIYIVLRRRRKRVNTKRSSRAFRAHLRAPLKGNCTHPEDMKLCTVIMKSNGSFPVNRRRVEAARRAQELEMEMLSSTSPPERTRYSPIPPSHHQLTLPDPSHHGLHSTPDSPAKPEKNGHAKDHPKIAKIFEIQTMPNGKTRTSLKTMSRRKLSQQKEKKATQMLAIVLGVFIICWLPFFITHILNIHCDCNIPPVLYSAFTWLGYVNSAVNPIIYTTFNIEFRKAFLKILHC

Consider `COCCc1cc(N2CCN(CC[C@H]3CC[C@H](NC=O)CC3)C[C@H]2C)nc(C(C)(C)C)n1` [Compound 19, trans-N-[4-[2-[(3R)-4-[2-tert-butyl-6-(2-methoxyethyl)pyrimidin-4-yl]-3-methyl-piperazin-1-yl]ethyl]cyclohexyl]formamide], for which the “D2/D3 (Ki (D2L)/Ki (D3))” value in series [1] is reported as “+++ (+++>50)”. Further, the Ki in series [2] is under 0.05 µM. Also, the “Human mCl” value in series [3] was “+ (+: 20-120 μl min^−1 mg^−1)”.
Consider `COCCc1cc(N2CCN(CC[C@H]3CC[C@H](NC=O)CC3)[C@H](C)C2)nc(C(C)(C)C)n1` [Compound 24, trans-N-[4-[2-[(2R)-4-[2-tert-butyl-6-(2-methoxyethyl)pyrimidin-4-yl]-2-methyl-piperazin-1-yl]ethyl]cyclohexyl]formamide], for which the “D2/D3 (Ki (D2L)/Ki (D3))” value in series [1] is listed as “+++ (+++>50)”. Besides, the “Rat mCl” value in series [4] is reported as “+ (+: 20-120 μl min^−1 mg^−1)”. Besides, the Ki in series [2] is under 0.05 µM. Also, the “Human mCl” value in series [3] is “+ (+: 20-120 μl min^−1 mg^−1)”.
As to `CC(=O)N[C@H]1CC[C@H](CCN2CCN(c3cc(CCO)nc(C(C)(C)C)n3)[C@H](C)C2)CC1` [Compound 29, trans-N-[4-[2-[(3R)-4-[2-tert-butyl-6-(2-hydroxyethyl)pyrimidin-4-yl]-3-methyl-piperazin-1-yl]ethyl]cyclohexyl]acetamide], the “D2/D3 (Ki (D2L)/Ki (D3))” value in series [1] was “+++ (+++>50)”. The “Rat mCl” value in series [4] is recorded as “+ (+: 20-120 μl min^−1 mg^−1)”. The compound further came in with a Ki in series [2] of under 0.05 µM. The “Human mCl” value in series [3] is reported as “+ (+: 20-120 μl min^−1 mg^−1)”.
Turning to `COCCc1cc(N2CCN(CC[C@H]3C[C@H](NC=O)C3)CC2)nc(C(C)(C)C)n1` [Compound 18, N-[trans-3-[2-[4-[2-tert-butyl-6-(2-methoxyethyl)pyrimidin-4-yl]piperazin-1-yl]ethyl]cyclobutyl]formamide], in series [1], the “D2/D3 (Ki (D2L)/Ki (D3))” value was “++ (++>20)”. In addition, the “Rat mCl” value in series [4] was “∘ (∘: >120 μl min^−1 mg^−1)”. The compound also had a Ki in series [2] of under 0.05 µM. Further, the “Human mCl” value in series [3] is reported as “+ (+: 20-120 μl min^−1 mg^−1)”.
On to `CC(=O)N[C@H]1CC[C@H](CCN2CCN(c3cc(CCO)nc(C(C)(C)C)n3)C[C@H]2C)CC1` [Compound 26, trans-N-[4-[2-[(2R)-4-[2-tert-butyl-6-(2-hydroxyethyl)pyrimidin-4-yl]-2-methyl-piperazin-1-yl]ethyl]cyclohexyl]acetamide], for which the “Rat mCl” value in series [4] is “+ (+: 20-120 μl min^−1 mg^−1)”. Besides, the “Human mCl” value in series [3] is given as “+ (+: 20-120 μl min^−1 mg^−1)”.
`COCCc1cc(N2CCN(CC[C@H]3CC[C@@H](NC(C)=O)CC3)CC2)nc(C(C)(C)C)n1` [Compound 3, cis-N-[4-(2-{4-[2-tert-Butyl-6-(2-methoxy-ethyl)-pyrimidin-4-yl]-piperazin-1-yl}-ethyl)-cyclohexyl]-acetamide]: in series [4], the “Rat mCl” value is “+ (+: 20-120 μl min^−1 mg^−1)”. Also, in series [3], the “Human mCl” value was “+ (+: 20-120 μl min^−1 mg^−1)”.
For the compound `CC(=O)N[C@H]1CC[C@@H](CCN2CCN(c3cc(CCOC(F)(F)F)nc(C(C)(C)C)n3)CC2)CC1` [Compound 10a, cis N-[4-(2-{4-[2-tert-Butyl-6-(2-trifluoromethoxy-ethyl)-pyrimidin-4-yl]-piperazin-1-yl}-ethyl)-cyclohexyl]-acetamide], in series [1], the “D2/D3 (Ki (D2L)/Ki (D3))” value is recorded as “++ (++>20)”. In addition, in series [2], the Ki was under 0.01 µM.
`COCc1cc(N2CCN(CC[C@H]3CC[C@H](NC=O)CC3)CC2)nc(C(C)(C)C)n1` [Compound 21, trans-N-[4-[2-[4-[2-tert-butyl-6-(methoxymethyl)pyrimidin-4-yl]piperazin-1-yl]ethyl]cyclohexyl]formamide]: in series [3], the “Human mCl” value is given as “+ (+: 20-120 μl min^−1 mg^−1)”.
Regarding `COCCc1cc(N2CCN(CC[C@H]3C[C@@H](NC(C)=O)C3)CC2)nc(C(C)(C)C)n1.O=C(O)C(F)(F)F` [Compound 4a, cis-N-[3-(2-{4-[2-tert-Butyl-6-(2-methoxy-ethyl)-pyrimidin-4-yl]-piperazin-1-yl}-ethyl)-cyclobutyl]-acetamide trifluoroacetate], the “Rat mCl” value in series [4] was “+ (+: 20-120 μl min^−1 mg^−1)”. In addition, the “Human mCl” value in series [3] is “+ (+: 20-120 μl min^−1 mg^−1)”.
